Data taken from US20250340532A1, “HETEROCYCLIC COMPOUND CCR4 INHIBITOR AND USER THEREOF” (Xizang Haisco Pharmaceutical Co., Ltd., priority 2022, published 2025).
pIC50: −log10 of the molar value.

Biological target: T1, CCR4 (Homo sapiens, UniProt P51679)
T1 construct: expressed in transfected cells; host or cells: HEK293
T1 sequence (P51679 1-360): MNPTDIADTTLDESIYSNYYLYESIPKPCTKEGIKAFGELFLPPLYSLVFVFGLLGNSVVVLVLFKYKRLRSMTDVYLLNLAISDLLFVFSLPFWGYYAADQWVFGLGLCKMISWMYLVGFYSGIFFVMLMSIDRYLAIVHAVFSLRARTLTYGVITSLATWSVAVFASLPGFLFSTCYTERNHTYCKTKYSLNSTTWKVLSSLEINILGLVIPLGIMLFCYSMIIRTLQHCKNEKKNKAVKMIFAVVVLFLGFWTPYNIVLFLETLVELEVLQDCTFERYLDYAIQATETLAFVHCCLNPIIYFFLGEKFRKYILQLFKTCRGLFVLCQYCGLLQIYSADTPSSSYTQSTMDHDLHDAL
Assay: Calcium flow detected by FLIPR
Format: cell-based
Conditions: CCR4/HEK293 cells, agonist CCL17, Fluo-4 calcium signal
Protocol: CCR4/HEK293 cells were added to a 384-well cell culture plate (Greiner #781946) at a rate of 20 μL/well (20,000 cells/well) and incubated overnight in a 37° C., 5% CO2 incubator (Incubator, Thermo). On the second day, the 384-well cell culture plate was taken out of the incubator and the culture medium was removed; Then, 20 μL of detection buffer and 20 μL of 2X Fluo-4 Direct™ (Invitrogen, Cat #F10471) were added. Then, compounds were added at 10 μL/well (compounds were subjected to 4-fold serial dilution, and the highest detection concentration was 10 μM), and the cells were incubated in a 37° C., 5% CO2 incubator for 50 min, and then incubated at room temperature for 10 min. The 384-well culture plate was placed in FLIPR ([…]), 10 μL of 6X agonist CCL17 was added by using an automatic loader, and the fluorescence signal was read immediately. The mean and standard error (Mean±SEM) were statistically analyzed using Graphpad Prism software, and the IC50 value was calculated.
The experimental results are shown in Table 3, where A represents IC50<100 nm; B represents 100 nM≤IC50<500 nM, and C represents 500 nM≤IC50.

pIC50 | SMILES
6.30 to 7.00 | Cc1nc(N2CC(C3CN(C4CC(C)(c5nn[nH]n5)C4)CCO3)C2)nc(NC(C)c2ccc(Cl)cc2Cl)c1Cl (single isomer, unassigned) [Compound 71 isomer 1]
> 7.00 | CC(Nc1nc(N2CC(C3C=CCN(C4CC(C)(C(=O)O)C4)C3)C2)nc(C(F)F)c1Cl)c1ccc(Cl)cc1Cl (single isomer, unassigned) [Compound 85 isomer 1]
> 7.00 | CC(Nc1cc(N2CC(F)(C3CN(C4CC(C)(C(=O)O)C4)CCO3)C2)ccc1Cl)c1ccc(Cl)cc1Cl (single isomer, unassigned) [Compound 86 isomer 1]
6.30 to 7.00 | Cc1nc(N2CC(C3CN(C4CC(C)(C(=O)O)C4)CCN3C)C2)nc(NC(C)c2ccc(Cl)cc2Cl)c1Cl (single isomer, unassigned) [Compound 81 isomer 1]

Second part, the molecule before the results:

SMILES | pIC50
C[C@@H](Nc1nc(N2CC([C@H]3CCCN([C@H]4C[C@](C)(C(=O)O)C4)C3)C2)c2sccc2n1)c1ccc(Cl)cc1Cl [Compound 33] | > 7.00
Cc1nc(C#CC2CCCN(C3CC(C)(C(=O)O)C3)C2)nc(NC(C)c2ccc(Cl)cc2Cl)c1Cl (single isomer, unassigned) [Compound 18 isomer 2] | > 7.00
C#Cc1ccc(C(C)Nc2cc(N3CC([C@H]4CCCN([C@H]5C[C@](C)(C(=O)O)C5)C4)C3)nc3ccnn23)c(Cl)c1 (stereo partly shown) [Compound 22] | > 7.00
